PubChem BioAssay (NCI)
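Five compound concentrations were applied to cells in 96-well plates for 48 hours; endpoints were derived by simple linear interpolation of the resulting dose-response curve. At the TGI there is no net growth.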 Where a SMILES comes first, the peptide text is derived from it. The star is where a group is joined. Fmoc = O=C(OCC1c2ccccc2-c2ccccc21)*; Boc = CC(C)(C)OC(=O)*

Columns and labels:
Assay in all cases: inhibition of tumour cell growth, NCI panel, 48 h
[1] = test system: A549 NSCLC
[2] = test system: EKVX NSCLC
[3] = test system: KM12 colon
[4] = test system: MALME-3M melanoma
[5] = test system: NCI-H460 lung
[6] = test system: NCI-H522 lung
[7] = test system: OVCAR-3 ovarian
[8] = test system: OVCAR-8 ovarian
[9] = test system: PC-3 prostate
[10] = test system: UO-31 renal

Row | Compound | TGI [1] | TGI [2] | TGI [3] | TGI [4] | TGI [5] | TGI [6] | TGI [7] | TGI [8] | TGI [9] | TGI [10]
1 | C=C(CN1CC2C[C@](C(=O)OC)(c3cc4ccccc4[nH]3)C1C(OC)C2OC)S(=O)(=O)c1ccccc1 (stereo not given in full) | 12.6 µM | 13 µM | 10.7 µM | 7.38 µM | 12 µM | 3.79 µM | 10.2 µM | 12.6 µM | 13 µM | 3.77 µM
2 | CC(C)(C)c1cc2c(O)c(c1)Cc1cc(C(C)(C)C)cc(c1O)Cc1cc(C(C)(C)C)cc(c1O)Cc1cc(C(C)(C)C)cc(c1O)Cc1cc(C(C)(C)C)cc(c1O)Cc1cc(C(C)(C)C)cc(c1O)Cc1cc(C(C)(C)C)cc(c1O)Cc1cc(C(C)(C)C)cc(c1O)C2 | > 50 µM | > 50 µM | > 50 µM | > 50 µM | > 50 µM | > 50 µM | > 50 µM | > 50 µM | > 50 µM | > 50 µM
3 | O=C(CCCl)NNC1=NCCCN1 | > 100 µM | > 100 µM | > 100 µM | > 100 µM | > 100 µM | > 100 µM | > 100 µM | > 100 µM | > 100 µM | > 100 µM
4 | CCN(CC)CCNc1ccc2nnn3c4ccc(O)cc4c(=O)c1c23 | 13.3 µM | 21.5 µM | 12.8 µM | 19.4 µM | 4.64 µM | 20.9 µM | 22.7 µM | 17.5 µM | 16.9 µM | 4.06 µM
5 | COc1ccc2nc3ccc(OC)cc3c(SCc3ccccc3)c2c1 | > 100 µM | > 100 µM | > 100 µM | > 100 µM | > 100 µM | > 100 µM | > 100 µM | > 100 µM | > 100 µM | > 35.7 µM
6 | COC(=O)[C@H](Cc1ccc(OC(C)(C)C)cc1)N[C@H](C)C(=O)N[C@@H](Cc1ccccc1)C(=O)OCc1ccccc1 | > 100 µM | > 100 µM | > 100 µM | > 100 µM | > 100 µM | > 100 µM | > 100 µM | > 100 µM | > 100 µM | 43.7 µM
7 | O=C(O)c1ccc(C2SCc3nc4ccccc4n32)cc1 (stereo not given) | > 100 µM | > 100 µM | > 100 µM | > 100 µM | > 100 µM | > 100 µM | > 100 µM | > 100 µM | > 100 µM | > 100 µM
8 | C[C@@H](NC(=O)c1ccc(CNC(=O)/C=C/c2cccc(Oc3ccccc3)c2)cc1)c1ccccc1 | > 57.8 µM | > 65.8 µM | > 100 µM | > 100 µM | > 100 µM | > 100 µM | > 100 µM | > 100 µM | > 100 µM | 27.5 µM
9 | O=C(NCCNCCCNC(=O)c1cc(-c2ccccc2)nc2ccccc12)c1cccc(OCc2ccccc2)c1OCc1ccccc1 | 3.15 µM | 3.1 µM | 3.37 µM | 3.58 µM | 3.8 µM | 3.12 µM | 3.36 µM | 3.15 µM | 3.04 µM | 3.03 µM
10 | CCOC(=O)C(=O)/C(=C/N1C(=O)CC(=O)NC1=S)C(=O)OCC | > 100 µM | > 100 µM | > 100 µM | > 100 µM | > 100 µM | > 100 µM | > 60.2 µM | > 100 µM | > 100 µM | > 100 µM
11 | CCOP(=O)(OCC)/C(C#N)=C/c1cnc[nH]1 | > 100 µM | > 100 µM | > 100 µM | > 100 µM | > 100 µM | > 100 µM | > 100 µM | > 100 µM | > 100 µM | > 100 µM
12 | O=C1C=C(OCCCCl)C(=O)c2c(O)ccc(O)c21 | 0.645 µM | 3.19 µM | 3.37 µM | 0.322 µM | 3.1 µM | 4.26 µM | 1.38 µM | 7.59 µM | 3.98 µM | 2.41 µM
13 | COc1ccc(C2CC3(c4ccccc4)ON=C(c4ccccc4)N3c3ccccc3S2)cc1 (stereo not given) | > 100 µM | > 100 µM | > 100 µM | > 100 µM | > 100 µM | > 100 µM | > 100 µM | > 100 µM | > 100 µM | > 100 µM
14 | COC(=O)CCC(C)C1CCC2C3C(C[C@H](OC(C)=O)[C@]12C)[C@@]1(C)CCC2(C[C@H]1C[C@H]3OC(C)=O)OOC1(CC[C@]3(C)C4C[C@H](OC(C)=O)[C@]5(C)C(C(C)CCC(=O)OC)CCC5C4[C@H](OC(C)=O)C[C@@H]3C1)OO2 (stereo not given in full) | > 100 µM | > 100 µM | > 100 µM | > 100 µM | > 100 µM | > 100 µM | > 100 µM | > 100 µM | > 100 µM | > 100 µM
15 | COC(=O)C1=C(C)C=C(N2CCOCC2)C(C(=O)OC)C1c1ccccc1 (stereo not given) | > 10 µM | > 10 µM | > 10 µM | > 10 µM | > 10 µM | > 10 µM | > 10 µM | > 10 µM | > 10 µM | > 10 µM
16 | COc1cc(-c2[o+]c3cc(O)cc(O)c3cc2O)cc(O)c1O | > 100 µM | > 100 µM | > 100 µM | > 100 µM | > 100 µM | > 100 µM | > 100 µM | > 100 µM | > 100 µM | > 100 µM
17 | CC(C)(C)OC(=O)NCCCCC(NC(=O)C(Cc1c[nH]c2ccccc12)NC(=O)OCC1c2ccccc2-c2ccccc21)C(=O)N1CCCC1C(=O)NCC(N)=O (stereo not given) (Fmoc-WK(Boc)PG-NH2; configuration not given here) | > 100 µM | > 100 µM | > 100 µM | > 100 µM | > 100 µM | > 100 µM | > 100 µM | > 100 µM | > 100 µM | > 100 µM
18 | c1ccc2c(c1)CCc1[nH]c3c(c1-2)-c1ccccc1CC3 | > 100 µM | > 100 µM | > 100 µM | > 100 µM | > 100 µM | > 100 µM | > 100 µM | > 100 µM | > 100 µM | > 100 µM
19 | COc1ccc(C2C3CCc4ccccc4C3=NN2S(=O)(=O)c2ccc(/C=C/C(=O)O)cc2)cc1 (stereo not given) | 54.4 µM | > 100 µM | 43.4 µM | 23.1 µM | 96.5 µM | 7.04 µM | 86.3 µM | 92.5 µM | > 100 µM | 38 µM
20 | CCN(CC)Cc1c(/C=C\c2cc(OC)c(OC)c(OC)c2)ccc(OC)c1O | > 100 µM | > 93.5 µM | 27.1 µM | > 100 µM | > 100 µM | 6.22 µM | 6.49 µM | 63.2 µM | > 41.5 µM | > 94.1 µM
21 | CC(OC(=O)C(CC(=O)OC(C)(C)C)NC(=O)OC(C)(C)C)C(=O)OCc1ccccc1 (stereo not given) | > 100 µM | > 100 µM | > 100 µM | > 100 µM | > 100 µM | > 100 µM | > 100 µM | > 100 µM | > 100 µM | > 100 µM
22 | Cc1ccc2nc(C=Nc3ccc(Cl)cc3)cc(C)c2c1 | > 100 µM | > 100 µM | 24.7 µM | > 64.9 µM | > 70.6 µM | 26.6 µM | 32.2 µM | 23.3 µM | > 76.5 µM | 7.91 µM
23 | O=C1C=CC(=O)c2c1ccc1c3ccccc3n(Cc3cccc([N+](=O)[O-])c3)c21 | > 100 µM | > 100 µM | > 100 µM | 40 µM | > 100 µM | 37.2 µM | 34.6 µM | > 100 µM | > 69 µM | > 100 µM
24 | COc1cc2c(cc1OCCCCOc1cc3c(cc1OC)C(=O)N1CCC[C@H]1C(=O)N3)N=C[C@@H]1CCCN1C2=O | 44.9 µM | 27.6 µM | 22.2 µM | 22.5 µM | 43.9 µM | 3.24 µM | 25.7 µM | 27.8 µM | 19.4 µM | 28 µM
25 | CC1CCC2(CC1)NC1=C(CC(C)CC1)C1=C2CC(C)CC1 (stereo not given) | > 100 µM | > 100 µM | 40.2 µM | 74.5 µM | 75.7 µM | 40 µM | 37.4 µM | 65.6 µM | 47.9 µM | 51.7 µM
26 | COC(=O)/C=C/C1(O)C=CC(=O)C=C1 | > 47.8 µM | 10.4 µM | 5.61 µM | 8.26 µM | > 61.7 µM | 0.598 µM | 4.93 µM | > 100 µM | 9.53 µM | 3.51 µM
27 | C[N+](C)(C)CC(=O)N/N=C/c1ccncc1 | > 100 µM | > 100 µM | > 100 µM | > 100 µM | > 100 µM | > 100 µM | > 100 µM | > 100 µM | > 100 µM | > 100 µM
28 | OCCOc1ccccc2cccc1-2 | > 100 µM | > 100 µM | > 100 µM | > 100 µM | > 100 µM | > 100 µM | > 100 µM | > 100 µM | > 100 µM | > 100 µM
29 | c1ccc2c(c1)NC1(N3CCCCC3)CCCCC21 (stereo not given) | > 100 µM | > 100 µM | > 100 µM | > 100 µM | > 100 µM | > 100 µM | > 100 µM | > 100 µM | > 100 µM | > 100 µM
